From ChEMBL document CHEMBL1201862, “PubChem BioAssay data set” (2004)
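48-hour exposure; five concentrations; linearly interpolated endpoints. At the GI50, growth is halved.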 The source made the active and inactive calls. No stated cut-off is given here; in the data, active = GI50 up to about 1.1 µM and inactive = higher.

Assays:
Test in all cases: DTP human tumour cell line panel, 48 h
M14 = system: M14
RPMI-8226 = system: RPMI-8226
UACC-62 = system: UACC-62
OVCAR-3 = system: OVCAR-3
SK-MEL-2 = system: SK-MEL-2
SF-539 = system: SF-539
A549 = system: A549
SF-295 = system: SF-295
CCRF-CEM = system: CCRF-CEM
Malme-3M = system: Malme-3M
IGROV-1 = system: IGROV-1
HCC 2998 = system: HCC 2998
HT-29 = system: HT-29
SK-MEL-28 = system: SK-MEL-28
SK-MEL-5 = system: SK-MEL-5
KM12 = system: KM12
A498 = system: A498

Measured: GI50

CN(C)/N=C(\CCN1CCCC1)CC(c1ccccc1)c1c(O)c2ccccc2oc1=O (stereo unspecified)
inactive: M14 > 100 µM | RPMI-8226 > 100 µM | UACC-62 > 100 µM | OVCAR-3 > 100 µM | SK-MEL-2 > 100 µM | SF-539 > 100 µM | A549 > 100 µM | SF-295 > 100 µM | CCRF-CEM > 100 µM | Malme-3M > 100 µM | IGROV-1 > 100 µM | HCC 2998 > 100 µM | HT-29 > 100 µM | SK-MEL-28 > 100 µM

CCOC1=CP(=O)(OCC)CC(C)=C1Cl (stereo unspecified)
inactive: SK-MEL-5 > 100 µM | M14 > 100 µM | RPMI-8226 > 100 µM | UACC-62 > 100 µM | OVCAR-3 > 100 µM | SK-MEL-2 > 100 µM | SF-539 > 100 µM | KM12 > 100 µM | A549 > 100 µM | SF-295 > 100 µM | CCRF-CEM > 100 µM | Malme-3M > 100 µM | A498 > 100 µM | IGROV-1 > 100 µM | HCC 2998 > 100 µM | HT-29 > 100 µM | SK-MEL-28 > 100 µM

CCOC(=O)C1=C(Nc2ccc(Cl)cc2Cl)OC/C1=N\NS(=O)(=O)c1ccc(C)cc1
inactive: SK-MEL-5 > 100 µM | M14 > 100 µM | UACC-62 92.9 µM | OVCAR-3 41.2 µM | SK-MEL-2 > 100 µM | SF-539 > 100 µM | KM12 > 100 µM | A549 > 100 µM | SF-295 > 100 µM | CCRF-CEM > 100 µM | Malme-3M > 100 µM | A498 > 100 µM | IGROV-1 > 100 µM | HCC 2998 > 100 µM | HT-29 > 100 µM | SK-MEL-28 > 100 µM

COC1/C(=C\c2ccccc2I)c2ccccc2N1C(C)=O (stereo unspecified)
inactive: RPMI-8226 8.87 µM | UACC-62 13 µM | OVCAR-3 16.6 µM | SK-MEL-2 17.5 µM | SF-539 16.4 µM | KM12 15.6 µM | A549 16 µM | SF-295 14.3 µM | CCRF-CEM 17 µM | A498 15.8 µM | IGROV-1 18.1 µM | HCC 2998 16 µM | HT-29 15.6 µM | SK-MEL-28 17.3 µM

CC1=C[C@@H]2Cc3occc3C(C)(C)[C@@H]2CC1
inactive: SK-MEL-5 17.9 µM | M14 22.3 µM | UACC-62 > 10 µM | OVCAR-3 17.7 µM | SK-MEL-2 10.9 µM | SF-539 23.8 µM | KM12 16.9 µM | A549 22.9 µM | SF-295 19.5 µM | CCRF-CEM 18.3 µM | Malme-3M 20 µM | A498 21.8 µM | IGROV-1 > 10 µM | HCC 2998 21.4 µM | HT-29 16.6 µM | SK-MEL-28 24 µM

COC(=O)C1CCC[C@H]2C(CO)=C(C)C(=O)[C@@H]12 (stereo partly specified)
inactive: SK-MEL-5 > 100 µM | M14 > 100 µM | RPMI-8226 > 100 µM | UACC-62 > 100 µM | SK-MEL-2 > 100 µM | SF-539 > 100 µM | KM12 > 100 µM | A549 > 100 µM | SF-295 > 100 µM | CCRF-CEM > 100 µM | Malme-3M > 100 µM | A498 > 100 µM | IGROV-1 > 100 µM | HCC 2998 > 100 µM | HT-29 > 100 µM | SK-MEL-28 > 100 µM

CCOC(=O)NC(=O)c1cn(CCSCCOC(=O)NCCCCCCNC(=O)OCCSCCn2cc(C(=O)NC(=O)OCC)c(=O)n(C)c2=O)c(=O)n(C)c1=O
inactive: RPMI-8226 20.5 µM | UACC-62 24.8 µM | OVCAR-3 23.8 µM | SK-MEL-2 34.2 µM | SF-539 25.9 µM | A549 45.2 µM | SF-295 75.7 µM | CCRF-CEM 30 µM | Malme-3M 24.6 µM | HCC 2998 30.5 µM | HT-29 52.5 µM | SK-MEL-28 41.8 µM

CCOC(=O)C1=C(C)N(NC(N)=O)C(C)(O)C12CCOC2=O (stereo unspecified)
inactive: SK-MEL-5 > 100 µM | M14 > 100 µM | RPMI-8226 > 100 µM | UACC-62 > 100 µM | OVCAR-3 > 100 µM | SK-MEL-2 > 100 µM | SF-539 > 100 µM | KM12 > 100 µM | A549 > 100 µM | SF-295 > 100 µM | Malme-3M > 100 µM | A498 > 100 µM | IGROV-1 > 100 µM | HCC 2998 > 100 µM | HT-29 > 100 µM | SK-MEL-28 > 100 µM

Cc1cc(O)c2c(c1)C(=O)c1cc(O)cc(O)c1C2=O [EMODIN]
inactive: SK-MEL-5 5.94 µM | M14 21.4 µM | RPMI-8226 17.7 µM | SK-MEL-2 33.9 µM | KM12 20.5 µM | A549 23 µM | SF-295 23.3 µM | CCRF-CEM > 61.8 µM | Malme-3M 11 µM | A498 21.3 µM | HCC 2998 31.3 µM | HT-29 33.7 µM | SK-MEL-28 25.4 µM

O=C(O)/C=C/c1ccncc1
inactive: SK-MEL-5 > 100 µM | M14 > 100 µM | RPMI-8226 > 100 µM | UACC-62 > 100 µM | OVCAR-3 > 100 µM | SK-MEL-2 > 100 µM | SF-539 > 100 µM | KM12 > 100 µM | SF-295 > 100 µM | CCRF-CEM > 100 µM | Malme-3M > 100 µM | A498 > 100 µM | IGROV-1 > 100 µM | HCC 2998 > 100 µM | HT-29 > 100 µM | SK-MEL-28 > 100 µM

CCCCCCCCOC(CO)CO
inactive: SK-MEL-5 > 100 µM | M14 > 100 µM | RPMI-8226 > 100 µM | UACC-62 > 100 µM | OVCAR-3 > 100 µM | A549 > 100 µM | SF-295 > 100 µM | CCRF-CEM > 100 µM | Malme-3M > 100 µM | A498 > 100 µM | IGROV-1 > 100 µM | HCC 2998 > 100 µM | HT-29 > 100 µM | SK-MEL-28 > 100 µM

CS/C(=N\C(=S)N(C)C)N(c1ccccc1)c1nc(N(C)C)s[s+]1
inactive: M14 4.83 µM | RPMI-8226 1.84 µM | UACC-62 4.88 µM | OVCAR-3 10.8 µM | SK-MEL-2 5.52 µM | SF-539 7.67 µM | KM12 3.65 µM | A549 3.84 µM | SF-295 16.7 µM | CCRF-CEM 1.88 µM | Malme-3M 2.34 µM | A498 1.9 µM | IGROV-1 77.3 µM | HCC 2998 11.9 µM | HT-29 2.67 µM | SK-MEL-28 2.21 µM

Cc1nc2c(o1)/C(=N\c1ccccc1)c1ccccc1/C2=N/c1ccccc1
inactive: SK-MEL-5 > 100 µM | M14 51.5 µM | RPMI-8226 47 µM | UACC-62 > 100 µM | OVCAR-3 26.6 µM | SK-MEL-2 61.9 µM | SF-539 > 100 µM | KM12 85.5 µM | A549 > 100 µM | SF-295 > 100 µM | CCRF-CEM 58.2 µM | Malme-3M 56.6 µM | A498 > 100 µM | IGROV-1 > 100 µM | HCC 2998 > 100 µM | HT-29 94.2 µM
